Laboratory results: patent US20240383900A1, “SUBSTITUTED PYRAZOLO [1,5-A]PYRIMIDINE-7-AMINE COMPOUNDS AS CDK INHIBITORS AND THEIR THERAPEUTIC USE” (Carrick Therapeutics Limited, priority 2021, published 2024)
Like-named read-outs stand apart in the source and are kept apart here.

Assays:
[1] = test system: A673 cells; experiment: Cytotoxicity in A673 cells (Cell Titer Glo viability); format: cell-based; settings: for Ratio of Biochemical Potency:Cellular Potency: CDK12 IC50 / A673 IC50; for IC50: Homo sapiens
Summary of the method: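 Cells plated at 1.2×10^5 per well in DMEM+10% FBS, 24 h, then compound series ± MLN4924 (30 nM final) in 0.1% DMSO for 72 h. Viability by Cell Titer Glo luminescence, normalised to vehicle (100%) and 0.1% Triton x-100 (0%); MLN4924 curves normalised to MLN4924-treated controls.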

[2] = test system: A673 cells; experiment: A673 cytotoxic potency shift in the presence of MLN4924 (cyclin K degrader activity); format: cell-based; settings: 30 nM MLN4924, 72 hours
Experimental: Inhibition of cell viability by test compounds was assessed in A673 cells (ATCC CRL-1598) and the compound mode of action was attributed to a “molecular-glue”/cyclin K-degradation mechanism by probing for a loss of compound potency in the presence of the NEDD8-activating enzyme inhibitor, MLN4924.
Cells were plated in 96-well plates at a density of […] viable cells per well in 200 μL fully supplemented growth medium (DMEM+10% heat inactivated foetal bovine serum) and incubated for 24 hours in standard tissue culture conditions. Compounds, including MLN4924, were solubilised in DMSO and then diluted in fully supplemented growth medium at 2× their final assay concentration such that the final DMSO concentration was 0.1%. Growth medium in the assay plates was replaced with 50 μL of growth medium containing 2×MLN4924 (final assay concentration: 30 nM, where tested) or vehicle only and 50 μL of growth medium containing a 2× compound concentration series or vehicle only such that each compound was at 1× final assay concentration in 100 μL.
Cells were then incubated for 72 hours in standard tissue culture conditions before viability was assessed using 50 μL Cell Titer Glo reagent (Promega) per well and luminescence measured on an EnVision plate reader. Data were normalised to vehicle control (100%) and cells treated with 0.1% Triton x-100 for 1 hour before viability measurement (0%; full cell kill). IC50 values were determined using a semi-logistic curve fit with parameters “top” fixed at 100% and “bottom” at or below 0%. Viability curves generated in the presence of MLN4924 were normalised and fixed to controls treated with MLN4924.

[3] = molecular target: Human CDK7/CycH/MAT1 (Homo sapiens (Human), UniProt P50613); experiment: Radiometric protein kinase assay (33PanQinase Activity Assay), CDK7; format: biochemical; settings: ATP 3 μM
Sequence of Human CDK7/CycH/MAT1 (P50613 whole entry): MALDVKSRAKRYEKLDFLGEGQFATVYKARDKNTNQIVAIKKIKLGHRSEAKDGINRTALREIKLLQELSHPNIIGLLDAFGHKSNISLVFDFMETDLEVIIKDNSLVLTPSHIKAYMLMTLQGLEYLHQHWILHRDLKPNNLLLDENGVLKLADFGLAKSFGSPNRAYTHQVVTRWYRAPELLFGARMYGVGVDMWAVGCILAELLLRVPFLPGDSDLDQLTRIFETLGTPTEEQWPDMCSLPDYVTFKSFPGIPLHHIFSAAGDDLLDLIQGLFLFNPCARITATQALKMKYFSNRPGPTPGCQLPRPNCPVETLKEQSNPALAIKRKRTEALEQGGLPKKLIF
Sequence of Human CDK7/CycH/MAT1 (P51946 whole entry partner): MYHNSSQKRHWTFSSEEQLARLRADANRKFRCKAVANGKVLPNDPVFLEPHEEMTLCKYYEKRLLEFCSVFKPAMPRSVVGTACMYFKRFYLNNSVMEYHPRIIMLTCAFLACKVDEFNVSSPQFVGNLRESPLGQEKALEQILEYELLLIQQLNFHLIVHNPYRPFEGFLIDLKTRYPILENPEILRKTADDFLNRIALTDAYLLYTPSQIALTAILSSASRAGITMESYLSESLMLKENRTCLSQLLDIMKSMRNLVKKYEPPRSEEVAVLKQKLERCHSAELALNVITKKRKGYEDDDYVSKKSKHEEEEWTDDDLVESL
Sequence of Human CDK7/CycH/MAT1 (P51948 whole entry partner): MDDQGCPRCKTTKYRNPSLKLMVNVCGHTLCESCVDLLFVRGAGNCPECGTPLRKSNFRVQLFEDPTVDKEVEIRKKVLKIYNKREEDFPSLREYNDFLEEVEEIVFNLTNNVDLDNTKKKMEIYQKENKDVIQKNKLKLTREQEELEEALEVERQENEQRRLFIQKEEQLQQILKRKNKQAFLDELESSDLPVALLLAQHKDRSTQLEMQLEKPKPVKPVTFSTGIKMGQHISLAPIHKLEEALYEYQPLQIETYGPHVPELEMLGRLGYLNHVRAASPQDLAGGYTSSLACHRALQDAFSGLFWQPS

[4] = molecular target: Human CDK12 wt/CycK (Homo sapiens (Human), UniProt Q9NYV4); experiment: Radiometric protein kinase assay (33PanQinase Activity Assay), CDK12; format: biochemical; settings: for CDK7/CDK12: ratio of CDK7 IC50 to CDK12 IC50, greater than 1 indicates selectivity for CDK12
Sequence of Human CDK12 wt/CycK (Q9NYV4 whole entry): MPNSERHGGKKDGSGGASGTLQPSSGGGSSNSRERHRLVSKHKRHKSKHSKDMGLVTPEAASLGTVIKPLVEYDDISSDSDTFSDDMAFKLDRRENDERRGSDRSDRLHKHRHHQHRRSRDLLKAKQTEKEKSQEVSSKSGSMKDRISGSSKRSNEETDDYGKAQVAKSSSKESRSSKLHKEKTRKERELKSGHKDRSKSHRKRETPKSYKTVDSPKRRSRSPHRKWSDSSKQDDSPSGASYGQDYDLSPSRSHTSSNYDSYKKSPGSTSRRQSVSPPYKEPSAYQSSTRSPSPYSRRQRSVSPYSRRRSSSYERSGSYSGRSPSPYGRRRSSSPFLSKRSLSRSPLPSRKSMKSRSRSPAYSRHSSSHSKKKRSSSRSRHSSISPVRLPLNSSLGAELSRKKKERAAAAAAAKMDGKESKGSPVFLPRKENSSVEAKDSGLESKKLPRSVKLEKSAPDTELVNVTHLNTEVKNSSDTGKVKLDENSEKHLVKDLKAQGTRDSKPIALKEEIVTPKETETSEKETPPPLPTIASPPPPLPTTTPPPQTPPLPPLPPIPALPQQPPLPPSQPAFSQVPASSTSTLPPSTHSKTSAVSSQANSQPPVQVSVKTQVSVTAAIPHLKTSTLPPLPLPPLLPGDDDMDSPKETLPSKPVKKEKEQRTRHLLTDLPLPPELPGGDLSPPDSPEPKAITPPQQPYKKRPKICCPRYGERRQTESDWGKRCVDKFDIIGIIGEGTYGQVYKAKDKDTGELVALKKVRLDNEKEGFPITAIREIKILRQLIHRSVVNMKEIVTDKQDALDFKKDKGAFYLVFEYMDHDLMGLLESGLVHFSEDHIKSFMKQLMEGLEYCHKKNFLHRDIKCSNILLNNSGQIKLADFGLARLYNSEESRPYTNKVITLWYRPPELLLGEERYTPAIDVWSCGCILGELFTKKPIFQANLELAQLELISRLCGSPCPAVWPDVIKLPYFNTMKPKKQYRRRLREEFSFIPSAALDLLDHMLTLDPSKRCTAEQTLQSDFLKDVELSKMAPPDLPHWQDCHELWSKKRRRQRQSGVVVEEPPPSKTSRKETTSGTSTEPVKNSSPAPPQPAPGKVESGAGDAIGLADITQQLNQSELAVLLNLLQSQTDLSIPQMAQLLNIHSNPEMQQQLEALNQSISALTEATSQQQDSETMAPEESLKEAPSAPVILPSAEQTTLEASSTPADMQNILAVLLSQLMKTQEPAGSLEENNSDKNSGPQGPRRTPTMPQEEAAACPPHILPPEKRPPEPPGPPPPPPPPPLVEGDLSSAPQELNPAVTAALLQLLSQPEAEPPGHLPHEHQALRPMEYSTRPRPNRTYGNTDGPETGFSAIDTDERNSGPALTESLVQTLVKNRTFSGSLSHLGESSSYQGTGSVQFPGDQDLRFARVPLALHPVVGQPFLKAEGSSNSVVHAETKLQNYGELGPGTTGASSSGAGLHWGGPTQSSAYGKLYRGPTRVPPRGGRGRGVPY
Sequence of Human CDK12 wt/CycK (O75909 whole entry partner): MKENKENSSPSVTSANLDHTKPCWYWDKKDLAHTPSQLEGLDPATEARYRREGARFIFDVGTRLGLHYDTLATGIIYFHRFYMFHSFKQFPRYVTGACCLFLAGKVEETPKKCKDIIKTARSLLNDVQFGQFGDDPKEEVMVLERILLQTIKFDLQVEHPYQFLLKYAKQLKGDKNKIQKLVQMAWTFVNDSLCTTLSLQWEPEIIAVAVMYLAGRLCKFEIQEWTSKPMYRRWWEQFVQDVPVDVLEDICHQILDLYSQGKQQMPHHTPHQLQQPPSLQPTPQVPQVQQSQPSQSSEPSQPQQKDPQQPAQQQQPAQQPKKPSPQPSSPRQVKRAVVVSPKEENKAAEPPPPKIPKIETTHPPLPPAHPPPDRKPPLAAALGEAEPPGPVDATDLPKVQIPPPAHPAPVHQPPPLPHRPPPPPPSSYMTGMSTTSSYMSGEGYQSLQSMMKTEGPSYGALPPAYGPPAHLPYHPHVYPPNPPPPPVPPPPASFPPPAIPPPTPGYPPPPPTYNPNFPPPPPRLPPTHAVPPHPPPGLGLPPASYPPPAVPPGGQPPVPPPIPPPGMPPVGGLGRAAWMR
Summary of the method: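 Radiometric 33P assay: ATP, test compound (in 10% DMSO) and premixed substrate/enzyme incubated 60 min at 30 °C, stopped with 2% H3PO4. 33Pi incorporation counted by scintillation; least-squares curve fit.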

[5] = A673, read-out: Cellular Potency IC50 (nM) (in A673 cells)
[6] = A673 cells, 72 hours, read-out: A673 IC50
[7] = ATP 0.3 μM, read-out: CDK12 IC50
[8] = read-out: CKD12 Biochemical Potency IC50

Row | IC50 [3] [nM] | IC50 [4, 7] [nM] | CDK7/CDK12 [4] | IC50 [4, 8] [nM] | SMILES | Ratio of Biochemical Potency:Cellular Potency [1] | IC50 [1, 5] [nM] | IC50 [1, 6] [nM] | Cyclin K Degrader Activity (A673 potency shift + MLN4924) [2]
1 | 576 | 143 | 4.0 | 143 | CC(C)c1cnn2c(NCc3ccc(-c4ccccc4)cc3)cc(NC[C@H]3CCNC[C@@H]3O)nc12 [PPA-004, (3R,4R)-4-(((7-(([1,1′-biphenyl]-4-ylmethyl)amino)-3-isopropylpyrazolo[1,5-a]pyrimidin-5-yl)amino)methyl)piperidin-3-ol] | 22.70 | 6.3 | 6.3 | +++ (>5 fold change.)
2 | 212 | 55 | 3.9 | 55 | O[C@H]1CNCC[C@@H]1CNc1cc(NCc2ccc(-n3cccn3)cc2)n2ncc(C3CC3)c2n1 [PPA-009] | 42.31 | 1.3 | 1.3 | ++ (>2 and ≤5 fold change.)
3 | 106 | 39 | 2.7 | 39 | O[C@H]1CNCC[C@@H]1CNc1cc(NCc2ccc(-c3nccs3)cc2)n2ncc(C3CC3)c2n1 [PPA-018] | 43.33 | 0.9 | 0.9 | +++ (>5 fold change.)
4 | 311 | 99 | 3.1 | 99 | O[C@H]1CNCC[C@@H]1CNc1cc(NCc2ccc(-c3ccccn3)cc2F)n2ncc(C3CC3)c2n1 [PPA-020] | 30.00 | 3.3 | 3.3 | +++ (>5 fold change.)
5 | 250 | 28 | 8.9 | 28 | c1ccc(-c2ccc(CNc3cc(N[C@H]4CCNC4)nc4c(C5CC5)cnn34)cc2)nc1 [PPA-037] | 40.00 | 0.7 | 0.7 | +++ (>5 fold change.)
6 | 6920 | 743 | 9.3 | 743 | c1ccc(-c2ccc(CNc3cc(NCC4CCNCC4)nc4c(C5CC5)cnn34)cc2)nc1 [PPA-040] | 36.78 | 20.2 | 20.2 | +++ (>5 fold change.)
7 | 338 | 51 | 6.6 | 51 | c1ccc(-c2ccc(CNc3cc(N[C@H]4CCCNC4)nc4c(C5CC5)cnn34)cc2)nc1 [PPA-044] | 18.89 | 2.7 | 2.7 | +++ (>5 fold change.)
8 | 323 | 42 | 7.7 | 42 | CCc1cnn2c(NCc3ccc(-c4ccccn4)cc3F)cc(NC[C@H]3CCNC[C@@H]3O)nc12 [PPA-068] | 28.00 | 1.5 | 1.5 | 
9 | 529 | 33 | 16.0 | 33 | F[C@@H]1CNC[C@H]1Oc1cc(NCc2ccc(-c3ccccn3)cc2)n2ncc(C3CC3)c2n1 [PPA-073] | 1.72 | 19.2 | 19.2 | 
10 | 350 | 23 | 15.2 | 23 | O[C@H]1CNCC[C@@H]1CNc1cc(NCc2ccc(-c3ccccn3)cc2F)n2ncc(Cl)c2n1 [PPA-074] | 32.86 | 0.7 | 0.7 | 
11 | 4720 | 145 | 32.6 | 145 | O=C1C[C@H](Nc2cc(NCc3ccc(-c4ccccn4)cc3)n3ncc(C4CC4)c3n2)CN1 [PPA-075] | 25.44 | 5.7 | 5.7 | 
12 | 2250 | 1490 | 1.5 | 1490 | O[C@H]1CNCC[C@@H]1CNc1cc(NCc2c(F)cc(-c3ccccc3)cc2F)n2ncc(C3CC3)c2n1 [PPA-076] | <14.9 | > 100 | > 100 | 
13 | 1390 | 41 | 33.9 | 41 | c1ccc(-c2ccc(CNc3cc(N4CCNC5(CC5)C4)nc4c(C5CC5)cnn34)cc2)nc1 [PPA-077] | 5.47 | 7.5 | 7.5 | 
14 | 6240 | 593 | 10.5 | 593 | N[C@H]1CC(=O)N(c2cc(NCc3ccc(-c4ccccn4)cc3)n3ncc(C4CC4)c3n2)C1 [PPA-078] | 19.64 | 30.2 | 30.2 | 
15 | > 30000 | 1190 |  | 1190 | c1ccc(-c2ccc(CNc3cc(-c4ccn[nH]4)nc4c(C5CC5)cnn34)cc2)nc1 [PPA-079] | <11.9 | > 100 | > 100 | 
16 | 344 | 57 | 6.0 | 57 | N#Cc1cnn2c(NCc3ccc(-c4ccccc4)cc3)cc(NC[C@H]3CCNC[C@@H]3O)nc12 [PPA-081] | 7.50 | 7.6 | 7.6 | 
17 | 125 | 44 | 2.8 | 44 | CCc1cnn2c(NCc3ccc(-c4ccccc4)cc3)cc(NC[C@H]3CCNC[C@@H]3O)nc12 [PPA-082] | 4.58 | 9.6 | 9.6 | 
18 | 118 | 32 | 3.7 | 32 | O[C@H]1CNCC[C@@H]1CNc1cc(NCc2ccc(-c3ccccc3)cc2)n2ncc(Cl)c2n1 [PPA-083] | 7.11 | 4.5 | 4.5 | 
19 | 14000 | 1120 | 12.5 | 1120 | c1ccc(-c2ccc(CNc3cc(N4CC5(CNC5)C4)nc4c(C5CC5)cnn34)cc2)nc1 [PPA-084] | 15.28 | 73.3 | 73.3 | 
20 |  |  |  |  | N#Cc1cnn2c(NCc3ccc(-c4ncccn4)cc3)cc(N[C@H]3CCCNC3)nc12 [PPA-094] |  | 0.9 | 1.9 | +++ (>5 fold change.)
21 |  |  |  |  | Cc1n[nH]cc1-c1cc(NCc2ccc(-c3ccccn3)cc2)n2ncc(C3CC3)c2n1 [PPA-095] |  | 43.5 | 4.7 | + (>1 and ≤2 fold change.)
22 |  |  |  |  | Cc1ncccc1-c1cc(NCc2ccc(-c3ccccn3)cc2)n2ncc(C3CC3)c2n1 [PPA-096] |  | 14.9 | 7.6 | +++ (>5 fold change.)
23 |  |  |  |  | c1cnn(-c2ccc(CNc3cc(OC4CNC4)nc4c(C5CC5)cnn34)cc2)c1 [PPA-097] |  | 3.5 | 0.4 | +++ (>5 fold change.)
24 |  |  |  |  | c1csc(-c2ccc(CNc3cc(N[C@H]4CCNC4)nc4c(C5CC5)cnn34)cc2)n1 [PPA-098] |  | 8.1 | 3.2 | +++ (>5 fold change.)
25 |  |  |  |  | c1cnn(-c2ccc(CNc3cc(N[C@H]4CCCNC4)nc4c(C5CC5)cnn34)cc2)c1 [PPA-099] |  | 1.2 | 0.9 | ++ (>2 and ≤5 fold change.)
26 |  |  |  |  | c1ccc(-c2ccc(CNc3cc(C4CCNCC4)nc4c(C5CC5)cnn34)cc2)nc1 [PPA-100] |  | 1.5 | 43.5 | +++ (>5 fold change.)

Row | SMILES | IC50 [3] [nM] | IC50 [4, 7] [nM] | CDK7/CDK12 [4] | IC50 [4, 8] [nM] | Ratio of Biochemical Potency:Cellular Potency [1] | IC50 [1, 5] [nM] | IC50 [1, 6] [nM] | Cyclin K Degrader Activity (A673 potency shift + MLN4924) [2]
27 | CN(c1cc(NCc2ccc(-c3ccccn3)cc2)n2ncc(C3CC3)c2n1)C1CCNCC1 [PPA-039] | 2090 | 169 | 12.4 | 169 | 60.36 | 2.8 | 2.8 | + (>1 and ≤2 fold change.)
